Laboratory results taken from US7060872B1, “Method for producing plants having modified canopy size or seedless fruit” (The State of Israel-Ministry of Agriculture & Rural …, priority 1998, dated 2006).
Entries after “also recorded” stand apart in the source; their conditions may differ.

Tested on: transgenic tomato plants expressing the sps streptavidin construct
Assay: External biotin application to sps transgenic tomato plants (reversal of degeneration)
Type: in vivo
Text: The morphology and development of leaves of 6 weeks old plants obtained from non transgenic plant and transgenic tomato plants expressing the sps streptavidin construct and treated daily with biotin were also examined. FIG. 7 depicts the results of this study. […] This degeneration was to a lesser degree in the treated plants. Non transgenic plants both biotin treated and untreated appeared normal.
All of the plants treated with biotin remained green and vital throughout their development.

O=C(O)CCCC[C@@H]1SC[C@@H]2NC(=O)N[C@@H]21 [biotin]
effect of daily biotin spraying after the initial chlorotic symptoms, on leaves (2 μM biotin, daily spray): development of normal leaves | effect of daily biotin spraying after the initial necrotic lesion (2 μM biotin, daily spray): stopped or prevented further development of degenerative symptoms | effect of daily biotin spraying after the initial flower buds, on fruit and seed (2 μM biotin, daily spray, plants with seedless fruit): development of normal fruit and the restoration of normal seed development | effect of spraying biotin on the affected area (6 mg/liter biotin): stopped the degeneration process and plants' growth was restored | effect of biotin application to T0 plants on germination of their seeds (seeds otherwise non-germinating (FIG. 6)): restored the germination; also recorded: normal germination | effect of biotin solution on leaf development of a degenerated T0 plant (seen 10 or 20 days after application (FIG. 5)): restored normal leaf development | tissue degeneration after a single biotin treatment (treated once after 3 weeks, 6 weeks old plants, versus untreated transgenic plants (FIG. 7)): lesser degree
